The results in this text go back to patent US8287902B2, “Enhanced-diffusion capsule” (Rainbow Medical Ltd., priority 2008, dated 2012).

The data set can be described thus: Maximum plasma concentration of octreotide in rats after endoscopic administration. Particulars: same administered octreotide level (5 mg).

Method: A control test was conducted on seven control rats. A 5 mg solution of octreotide was endoscopically administered to the control rats, and the resulting maximum plasma concentrations of octreotide in the control rats were measured.
Octreotide was administered to three test rats using techniques that were in accordance with embodiments of the present invention. A drug layer of 5 mg of octreotide was dried onto the outer layer of each of three capsules, and the capsules were endoscopically placed in the small intestine of the three test rats. The resulting maximum plasma concentrations of octreotide in the test rats were measured.

For the compound `C[C@@H](O)[C@@H]1NC(=O)[C@H](CCCCN)NC(=O)[C@@H](Cc2c[nH]c3ccccc23)NC(=O)[C@H](Cc2ccccc2)NC(=O)[C@@H](NC(=O)[C@H](N)Cc2ccccc2)CSSC[C@@H](C(=O)N[C@H](CO)[C@@H](C)O)NC1=O` [octreotide], the “resultant blood concentration of octreotide, test group (capsule surface) versus control group (solution)” value was “significantly higher”.
